Legend:
[1] = test system: panel of five human cancer cell lines (HeLa, MDA-MB-231, A549, HT-29, MCF-7); assay: In vitro growth inhibition, range over the panel of five cancer cell lines; settings: for IC50: read-out: IC50 values, range over the cancer cell line panel; for GI50: read-out: antiproliferative GI50 values, range over the five tumor lines
Method: All the cell lines were purchased from the American Type Culture Collection (ATCC, Manassas, VA, USA). Drug stock solutions were prepared for each compound by dissolving them in DMSO at 10 mM.
Cancer cells were seeded in tissue treated, flat bottom, 384-well plates (Corning, Corning, NY, USA) according to their optimal density, in 27 μL of complete medium per well, using a Microlab STAR 96-CORE liquid handling system (Hamilton Bonaduz, Bonaduz, Switzerland) as described previously [75]. Each compound was tested in a 6-points 2-fold dose–response curve, and each dose was tested in duplicate within each plate, in three independent experiments. The final concentration of DMSO in the wells never exceeded 0.1%, which was the maximum concentration.
Only plates with acceptable Z-prime quality metrics (Z′ > 0.6) were further analyzed for the drug screening. Raw data were normalized according to the following equation: cell viability (%) = (x − POS)/(NEG − POS) × 100, where x is the relative fluorescence units (RFU) collected from each single well, NEG is the mean of intraplate negative controls (DMSO, corresponding to 100% cell viability), and POS is the mean of intraplate positive controls (Bortezomib 1 μΜ, equal to 0% cell viability).

MDA-MB-231 cells = assay: In vitro growth inhibition (resazurin, 72 h), MDA-MB-231; assay type: cell-based; settings: Homo sapiens, mean ± SE
HT-29 cells = assay: In vitro growth inhibition (resazurin, 72 h), HT-29; assay type: cell-based; settings: Homo sapiens, mean ± SE
A549 cells = assay: In vitro growth inhibition (resazurin, 72 h), A549; assay type: cell-based; settings: Homo sapiens, mean ± SE
HeLa cells = assay: In vitro growth inhibition (resazurin, 72 h), HeLa; assay type: cell-based; settings: Homo sapiens, concentration inhibiting tumor cell proliferation by 50%, mean ± SE
MCF-7 cells = assay: In vitro growth inhibition (resazurin, 72 h), MCF-7; assay type: cell-based; settings: Homo sapiens, MCF7, mean ± SE
human recombinant HDAC8 = target: T1, human recombinant HDAC8 (Homo sapiens, UniProt Q9BY41); assay: HDAC isoform inhibition, fluorogenic substrate, HDAC8; assay type: biochemical; settings: mean ± SE, read-out: IC50 (µM) hHDAC8
T1 construct: purchased BPS Bioscience 50008
T1 sequence (Q9BY41 1-377): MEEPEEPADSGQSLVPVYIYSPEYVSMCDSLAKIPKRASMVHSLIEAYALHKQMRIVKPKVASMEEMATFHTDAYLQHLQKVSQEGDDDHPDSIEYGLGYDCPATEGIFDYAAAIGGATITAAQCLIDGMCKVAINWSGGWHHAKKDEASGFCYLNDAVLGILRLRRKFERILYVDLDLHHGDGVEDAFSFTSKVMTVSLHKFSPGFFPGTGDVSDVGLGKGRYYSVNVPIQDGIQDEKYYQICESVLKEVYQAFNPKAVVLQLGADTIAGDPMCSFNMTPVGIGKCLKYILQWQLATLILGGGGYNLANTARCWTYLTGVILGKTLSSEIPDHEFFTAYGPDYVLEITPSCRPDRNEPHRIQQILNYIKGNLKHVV
Method: (§1) Further experiments were also carried out to evaluate the inhibitory activities of test compounds on selected HDAC isoforms. […] Following an incubation of 15 min at RT, fluorescence was measured in an EnSight multimodal plate reader (PerkinElmer, Boston, MA, USA) with an excitation wavelength of 360 nm and an emission wavelength of 450 nm.

[2] = test system: tubulin (colchicine site); assay: Inhibition of [3H]colchicine binding to tubulin; design: species or system bovine; settings: tubulin 0.5 µM, [3H]colchicine 5 µM, tested compound 5 µM
Method: (§2) Bovine brain tubulin was purified as described previously. To evaluate the effects of the compounds on tubulin assembly in vitro [77], varying concentrations were preincubated with 10 μM tubulin in 0.8 M monosodium glutamate (pH 6.6) at 30 °C, and the reaction mixtures were then cooled to 0 °C. After addition of GTP, the mixtures were transferred to 0 °C cuvettes in Beckman Coulter (Brea, CA, USA) DU-7400/DU-7500 recording spectrophotometers equipped with electronic temperature controllers and were warmed to 30 °C, and the assembly of tubulin was observed turbidimetrically. […] Inhibition of colchicine binding to tubulin was measured as described before, except that the reaction mixtures contained 0.5 μM tubulin and 5 μM each of [^3H]colchicine and test compound. Only one DEAE-cellulose filter was used per sample, and filtration was via gravity.

human recombinant HDAC1 = target: T2, human recombinant HDAC1 (Homo sapiens, UniProt Q13547); assay: HDAC isoform inhibition, fluorogenic substrate, HDAC1; assay type: biochemical; settings: mean ± SE, read-out: IC50 (µM) hHDAC1
T2 construct: purchased BPS Bioscience 50051
Method: as §1

bovine brain tubulin = assay: Inhibition of tubulin polymerization (turbidimetric); assay type: biochemical; settings: tubulin at 10 μM; 20 min incubation at 30 °C; read-out: Tubulin Assembly IC50 ± SD
Method: as §2

human recombinant HDAC10 = target: T3, human recombinant HDAC10 (Homo sapiens, UniProt Q969S8); assay: HDAC isoform inhibition, fluorogenic substrate, HDAC10; assay type: biochemical; settings: mean ± SE, read-out: IC50 (µM) hHDAC10
T3 construct: purchased BPS Bioscience 50060
T3 sequence (Q969S8 1-669): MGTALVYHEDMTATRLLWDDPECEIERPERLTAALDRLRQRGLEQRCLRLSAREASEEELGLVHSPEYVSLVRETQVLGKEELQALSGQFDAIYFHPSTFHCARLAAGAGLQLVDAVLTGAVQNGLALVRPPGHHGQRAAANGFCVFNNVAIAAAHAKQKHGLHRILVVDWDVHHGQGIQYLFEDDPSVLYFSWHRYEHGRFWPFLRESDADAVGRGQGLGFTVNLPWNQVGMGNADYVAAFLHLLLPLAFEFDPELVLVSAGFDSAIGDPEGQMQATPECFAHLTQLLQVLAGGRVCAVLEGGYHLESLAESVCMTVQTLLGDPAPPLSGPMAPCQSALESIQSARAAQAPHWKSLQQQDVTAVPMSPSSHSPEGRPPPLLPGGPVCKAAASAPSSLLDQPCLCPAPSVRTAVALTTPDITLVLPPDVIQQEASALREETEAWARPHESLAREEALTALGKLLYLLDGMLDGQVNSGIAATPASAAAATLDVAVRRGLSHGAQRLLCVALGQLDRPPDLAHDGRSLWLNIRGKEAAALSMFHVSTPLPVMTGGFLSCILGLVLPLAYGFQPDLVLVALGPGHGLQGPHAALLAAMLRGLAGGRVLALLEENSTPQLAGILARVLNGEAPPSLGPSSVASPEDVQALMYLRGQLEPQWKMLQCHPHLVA
Method: as §1

human recombinant HDAC6 = target: T4, human recombinant HDAC6 (Homo sapiens, UniProt Q9UBN7); assay: HDAC isoform inhibition, fluorogenic substrate, HDAC6; assay type: biochemical; settings: mean ± SE, read-out: IC50 (µM) hHDAC6
T4 construct: purchased BPS Bioscience 50056
T4 sequence (Q9UBN7 1-1215): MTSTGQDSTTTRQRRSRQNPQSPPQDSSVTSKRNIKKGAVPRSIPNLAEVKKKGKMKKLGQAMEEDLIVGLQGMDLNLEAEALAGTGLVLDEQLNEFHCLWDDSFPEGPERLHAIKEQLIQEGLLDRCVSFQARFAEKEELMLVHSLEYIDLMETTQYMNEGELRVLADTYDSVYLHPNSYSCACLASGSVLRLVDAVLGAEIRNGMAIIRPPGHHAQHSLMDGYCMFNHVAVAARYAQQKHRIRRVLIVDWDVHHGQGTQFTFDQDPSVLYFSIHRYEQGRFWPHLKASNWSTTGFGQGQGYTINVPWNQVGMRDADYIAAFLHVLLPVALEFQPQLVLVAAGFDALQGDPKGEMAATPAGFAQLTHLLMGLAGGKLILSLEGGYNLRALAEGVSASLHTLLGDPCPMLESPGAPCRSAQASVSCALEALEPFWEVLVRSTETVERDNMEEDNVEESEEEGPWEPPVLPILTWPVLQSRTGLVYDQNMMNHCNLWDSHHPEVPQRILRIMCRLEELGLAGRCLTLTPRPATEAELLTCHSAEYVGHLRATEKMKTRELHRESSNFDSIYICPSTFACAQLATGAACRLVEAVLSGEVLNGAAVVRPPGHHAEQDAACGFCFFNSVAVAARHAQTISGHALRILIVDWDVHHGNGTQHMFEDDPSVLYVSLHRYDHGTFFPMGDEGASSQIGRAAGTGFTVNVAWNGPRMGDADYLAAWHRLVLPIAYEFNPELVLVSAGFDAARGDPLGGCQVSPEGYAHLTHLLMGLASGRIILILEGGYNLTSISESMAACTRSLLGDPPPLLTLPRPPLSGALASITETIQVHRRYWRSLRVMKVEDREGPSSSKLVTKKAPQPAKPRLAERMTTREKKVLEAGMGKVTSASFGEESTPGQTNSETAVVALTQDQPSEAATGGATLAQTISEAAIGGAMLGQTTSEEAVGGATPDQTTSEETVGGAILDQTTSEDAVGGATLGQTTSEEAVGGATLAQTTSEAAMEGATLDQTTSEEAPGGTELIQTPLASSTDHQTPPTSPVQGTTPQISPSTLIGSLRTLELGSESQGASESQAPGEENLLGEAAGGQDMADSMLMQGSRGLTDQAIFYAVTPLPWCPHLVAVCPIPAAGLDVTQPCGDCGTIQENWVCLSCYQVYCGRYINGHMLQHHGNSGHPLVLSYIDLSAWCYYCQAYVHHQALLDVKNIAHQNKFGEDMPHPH
Method: as §1

[3] = test system: acetylated histone H3 (Ac-H3K9) in HT-29 cells; assay: Western blot of acetylated histone H3 (Ac-H3K9) in HT-29 cells; assay type: cell-based, human; settings: 10 µM, 6 h
Method: HT-29 cells were treated with selected compounds for 6 h at 10 µM, lysed, and then processed as previously described.
Antibodies directed against total histone H3 and its acetylated form (Ac-H3K9) were purchased from Cell Signaling Technology, Danvers, Massachusetts, while anti-vinculin antibody was purchased from Santa Cruz Biotechnology. Membranes were visualized using ECL select (GE Healthcare), and images were acquired using the iBright FL1500 Imaging System (Thermo Fisher Scientific, Waltham, MA, USA). Anti-vinculin (1:25,000, Santa Cruz Biotechnology, Dallas, TX, USA) was used as loading controls.

T2 sequence (Q13547 whole entry, canonical isoform): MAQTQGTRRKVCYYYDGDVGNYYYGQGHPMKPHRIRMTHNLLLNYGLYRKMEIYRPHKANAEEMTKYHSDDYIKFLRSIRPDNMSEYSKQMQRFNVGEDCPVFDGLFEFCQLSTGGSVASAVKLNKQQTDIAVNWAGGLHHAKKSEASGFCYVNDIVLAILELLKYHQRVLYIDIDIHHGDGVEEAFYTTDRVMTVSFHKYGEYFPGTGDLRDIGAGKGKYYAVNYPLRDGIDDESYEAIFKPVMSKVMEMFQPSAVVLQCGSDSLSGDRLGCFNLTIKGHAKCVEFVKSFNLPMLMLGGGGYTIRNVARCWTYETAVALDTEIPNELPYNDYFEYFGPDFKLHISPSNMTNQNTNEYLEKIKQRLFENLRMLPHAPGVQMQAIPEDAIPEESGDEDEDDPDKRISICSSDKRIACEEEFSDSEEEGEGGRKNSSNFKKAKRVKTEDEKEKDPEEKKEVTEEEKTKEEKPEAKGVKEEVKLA

Structure (SMILES)	IC50 [1]	GI50 [1]	IC50 (MDA-MB-231 cells)	IC50 (HT-29 cells)	IC50 (A549 cells)	IC50 (HeLa cells)	IC50 (MCF-7 cells)	IC50 (human recombinant HDAC8)	Colchicine Binding % Inhibition ± SD [2]	IC50 (human recombinant HDAC1)	IC50 (bovine brain tubulin)	IC50 (human recombinant HDAC10)	IC50 (human recombinant HDAC6)	melting point	acetylated histone H3 (Ac-H3K9) level, Western blot [3]
COc1cc2oc(C(=O)c3cc(OC)c(OC)c(OC)c3)c(C)c2cc1/C=C/C(=O)NO [Compound 6a, (E)-N-Hydroxy-3-(6-methoxy-3-methyl-2-(3,4,5-trimethoxybenzoyl)benzofuran-5-yl)acrylamide]	5 to 23 nM	5 to 23 nM	5 ± 0.04 nM	7.5 ± 0.11 nM	23.5 ± 0.24 nM	5.2 ± 0.03 nM	7 ± 0.2 nM	> 30 µM	–	–	–	–	–	–	–
COc1cc(OC)cc(C(=O)c2oc3cc(OC)c(/C=C/C(=O)NO)cc3c2C)c1 [Compound 6c, (E)-3-(2-(3,5-Dimethoxybenzoyl)-6-methoxy-3-methylbenzofuran-5-yl)-N-hydroxyacrylamide]	–	4 to 44 nM	26.9 ± 1.74 nM	29 ± 0.01 nM	43.9 ± 0.55 nM	4 ± 0.01 nM	19 ± 1 nM	> 30 µM	81 ± 4%	> 30 µM	420 ± 70 nM	> 30 µM	12.5 ± 0.8 µM	170 to 172 °C	–
COc1cccc(C(=O)c2oc3cc(OC)c(/C=C/C(=O)NO)cc3c2C)c1 [Compound 6e, (E)-N-Hydroxy-3-(6-methoxy-2-(3-methoxybenzoyl)-3-methylbenzofuran-5-yl)acrylamide]	–	–	44.7 ± 3.12 nM	7.9 ± 0.02 nM	54.2 ± 2.03 nM	6 ± 0.05 nM	33 ± 6 nM	> 30 µM	86 ± 1%	13.4 ± 0.9 µM	1100 ± 100 nM	> 30 µM	17.1 ± 1.2 µM	100 to 102 °C	–
COc1cc2oc(C(=O)c3cc(OC)c(OC)c(OC)c3)c(C)c2cc1C#CC(=O)NO [Compound 11a, N-Hydroxy-3-[6-methoxy-3-methyl-2-(3,4,5-trimethoxybenzoyl)-1-benzofuran-5-yl] prop-2-ynamide]	0.4 to 19 nM	–	16.1 ± 0.01 nM	6.6 ± 0.96 nM	18.7 ± 0.72 nM	0.4 ± 0.04 nM	9.5 ± 0.7 nM	> 30 µM	69 ± 0.1%	14.1 ± 1 µM	490 ± 100 nM	> 30 µM	> 30 µM	268 to 270 °C	–
COc1ccc2c(C)c(C(=O)c3cc(OC)c(OC)c(OC)c3)oc2c1 [TR187, 2-(3′,4′,5′-trimethoxybenzoyl)-3-methyl-6-methoxy benzofuran, reference compound]	3 to 72 nM	–	3.1 ± 0.01 nM	35.2 ± 0.82 nM	24 ± 0.44 nM	8.5 ± 0.11 nM	72 ± 4 nM	–	–	–	620 nM	–	–	–	does not show any inhibitory activity towards HDAC even at the cellular level

Source: article PMC11277476, “Synthesis and Biological Evaluation of Novel 2-Aroyl Benzofuran-Based Hydroxamic Acids as Antimicrotubule Agents” (International Journal of Molecular Sciences, 2024)
